1 compound from patent US20230183179A1, “NOVEL CELL METABOLISM MODULATING COMPOUNDS AND USES THEREOF” (CRESCENTA BIOSCIENCES, priority 2020, published 2023) can be followed below.

For assay [1], the system named is differentiated 3T3-L1 mouse adipocyte cells. Put plainly: Adipocyte glucose consumption in differentiated 3T3-L1 cells (colorimetric glucose assay of the medium). It counts as cell-based. The note with it: 3T3-L1, 24 h, compound 10 μM, loss of glucose from culture medium, mean fold change (compound/DMSO). Summed up: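 Differentiated 3T3-L1 mouse adipocytes (rosiglitazone/dexamethasone/IBMX/insulin induction, day 11) treated 24 h with compounds at 10 μM, 0.1% DMSO final. Medium glucose measured colorimetrically; consumption taken as glucose loss from medium versus cell-free control, expressed as mean fold change compound/DMSO ±SD.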

Assay [2] deals with T1, His6 tagged human recombinant FABP4 (Homo sapiens, UniProt P15090).
T1 construct: purchased Cayman Chemicals 10009549
T1 sequence (P15090 whole entry): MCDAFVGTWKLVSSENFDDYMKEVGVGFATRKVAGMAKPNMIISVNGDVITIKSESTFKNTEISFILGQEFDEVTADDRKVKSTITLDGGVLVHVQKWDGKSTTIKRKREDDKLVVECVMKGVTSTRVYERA
Description: FABP4 TR-FRET assay: displacement of fluorescent fatty acid BODIPY FL C12. The note with it: inhibition of BODIPY FL C12 binding to His6-FABP4; 1.2 μL of 1.085 mM compound in DMSO per well; triplicates, mean percent inhibition. The method, boiled down:
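TR-FRET displacement of BODIPY FL C12 from His6-FABP4 bound by Tb-anti-His6 antibody, in Tris pH 7.4 buffer with γ-globulins, NP-40 and DTT; compound stock 1.085 mM in DMSO. Read after 10 min at room temperature as 520/615 nm ratio; mean % inhibition versus DMSO from triplicates.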
Background: In TR-FRET formats the signal depends on donor and acceptor labels being close together.

The fold induction is the ratio of treated to control signal. Higher therefore signals a strong induction. As a reminder, the inhibition is the change of the read-out against control, counted positive when it falls. `CCCCCCc1ccc2nc(N(C)CC(=O)O)c(C)c(-c3ccc(F)cc3)c2c1` [2-([4-(4-fluorophenyl)-6-hexyl-3-methylquinolin-2-yl](methyl)amino}acetic acid]: the fold induction at 10 µM in assay [1] is 1.19. For the same compound, the inhibition at 1085 µM (stock) in assay [2] was determined as 111%.
